Values joined by “and” are separate entries in the source; they are usually repeats but may differ in a detail not shown here. Equal entries are not always repeated.
How the values were obtained:
glycine B site = biological target: T1, glycine B site (Rattus norvegicus, UniProt P35439); test: Binding of [^3 H]-glycine to rat brain membranes (glycine B site); parameters: species or system rat (Wistar); conditions: [^3 H]-glycine 10 nM, 20 minutes at 4° C., concentration inhibiting radioligand binding by 50%
T1 construct: from tissue; host or cells: rat brain without cerebellum (Wistar males), Triton-treated membranes
Method: (§1) Preparation of the membranes (according to Yoneda et al., J. Neurochem., 55, 1, 237-244, 1990)
(§2) The membranes are prepared and used in the same way for both radioligands. The buffers are prepared with sterile Milli-Q water (Millipore) which is deionized and filtered, just before use, on a nitrocellulose filter (0.45 μm).
(§3) After dissection, the brains from rats (Wistar males, 240-260 g), freed from the cerebellum, are placed in an ice-cold buffer comprising Tris-acetate (1 mM), EGTA (1 mM) and sucrose (320 mM) at pH 7. The brains are milled and then homogenized using a polytron. The suspension is centrifuged for 10 minutes at 1000 g and the supernatent containing the membranes is recovered and recentrifuged for 20 minutes at 35000 g. The pellet, freed from a brown ring, is recovered in a lysis buffer comprising Tris-acetate (1 mM) and EGTA (1 mM) at pH 8. The suspension is then left for 15 minutes at 4° C. and is then centrifuged for 20 minutes at 35000 g. The pellet is recovered in a Tris-acetate (50 mM) buffer at pH 7.4 containing 0.08% Triton and left for 30 minutes at 4° C.
(§4) After two successive centrifugings, the pellet is taken up in Tris-acetate (50 mM) buffer at pH 7.4, divided into aliquots and stored at -80° C. On the day of the experiment, at most 3 weeks after the preparation, the membranes are washed twice with Tris-acetate (50 mM) buffer at pH 7.4.
(§5) Binding experiments (according to Yoneda et al., J. Neurochem., 60, 2, 634-645, 1993)
(§6) The free and bound radioligands are separated on GF/B filters, preimpregnated with PEI (0.1%), using a Brandle filtration device. […] Each filter is rinsed 3 times. The radioactivity is measured using a β-counter (Tricarb 1500, Packard) and expressed in dpm. The curves obtained are analyzed using GraphPad Prism software (non-linear regression).

NMDA channel = test: Binding of [^3 H]-MK 801 to rat brain membranes (NMDA channel), stimulation or inhibition; parameters: species or system rat (Wistar); conditions: for ME (maximum effect) on [^3 H]-MK 801 binding: with respect to a base of 0%, + = stimulation, - = inhibition; for IC50: read-out: IC50, [^3 H]-MK 801 binding, [^3 H]-MK 801 1 nM, 120 minutes at 20° C., antagonists; for activity at glycine B receptor (in words): agonist character
Method: as §1, §2, §3, §4, §5, §6
The opening of the channel of the NMDA receptor complex is modulated positively by the glycinergic site.

Compound	IC50 (glycine B site)	ME (maximum effect) on [^3 H]-MK 801 binding (NMDA channel; at 100 μM)	IC50 (NMDA channel)	IC50 (glycine B site; listed as compound of the invention)	ME (maximum effect) on [^3 H]-MK 801 binding (NMDA channel; at 10 μM)	ME (maximum effect) on [^3 H]-MK 801 binding (NMDA channel; at 10 μM, listed as compound of the invention)	activity at glycine B receptor (in words) (NMDA channel; qualitative, listed as compound of the invention)	activity at glycine B receptor (in words) (NMDA channel; qualitative, listed as compound of the present invention)	effect on binding of [^3 H]-MK 801 (in words) (NMDA channel; rat brain membranes, qualitative)	ME (maximum effect) on [^3 H]-MK 801 binding (NMDA channel; at 1 μM)
N[C@@H]1CCN(O)C1=O [(+)-HA966]	7.3 µM	-85 ± 7%	6.73 µM	–	–	–	–	–	–	–
O=C1CNCN1O [Example 1, 3-Hydroxy-4-imidazolidinone]	6.81 ± 0.545 µM	–	–	6.8 µM	+46 ± 3%	46%	behaves as an agonist	powerful partial agonist	stimulates the binding of [^3 H]-MK 801	–
O=c1[nH]c2cc(Cl)ccc2c(O)c1-c1cccc(Oc2ccccc2)c1 [L 701,324]	0.026 µM and ~0.026 µM	–	0.022 µM	–	–	–	–	–	–	-91 ± 3%
